Assay results reported in patent US6916446B1, “Bioreactor method, apparatus and product thereby” (The United States of America as represented by the …, priority 2002, dated 2005).
Read-outs that look alike come from different tables or passages of the source.

Tests used:
strain IMB-1 [1] = assay: Batch oxidation of MeBr in bottles containing cell suspensions of strain IMB-1; assay type: cell-based, strain IMB-1 (ATCC 202197); set-up: MeBr Oxidation Rate per Cell: unit not given here; settings: for CO2 Production Rate: corrected for respiration
strain IMB-1 [2] = assay: Open-system bioreactor, 10 L growing culture, continuous supply of MeBr; assay type: cell-based, strain IMB-1 (ATCC 202197); settings: in 15 days; 21.2 g/m^3 MeBr in air, 10 L culture
From the text: The bioreactor may be designed to maximize the rate of oxidation of methyl bromide, particularly when using strain IMB-1. For example, without limitation, a twelve (12)-liter fermenter may be used to grow 10-L of cells of IMB-1 in batch culture for flow-through. Preferably, the fermenter is used in continuous-flow mode to grow IMB-1 using 21.2 g/m^3 MeBr as the feedstock. Use of strain 1 IMB-1 in a bioreactor is used in the present invention to directly oxidize various concentrations of the methyl halide, preferably methyl bromide or methyl iodide, for example without limitation high concentrations of approximately 30,000 ppm or 125 g/m^3. Direct oxidation of methyl bromide is most preferred.
A closed-system bioreactor was built using the general design of FIG. 1 and employed for testing on a laboratory bench. The bioreactor was started with 0.5 L of growing culture of methylotrophic bacteria strain IMB-1 and removed MeBr at fumigation concentrations (>17 g/m^3) from re-circulating air. Strain IMB-1 grew to high cell densities (5×10^9 cells/cm^3) in the bioreactor within several days using pulsed additions of MeBr as the sole carbon and energy source. The addition of the MeBr was done as a gas. Bacterial oxidation of MeBr produced CO2 and hydrobromic acid (HBr) which could be neutralized by addition of NaOH. […]

[3] = tested on: Bacillus anthracis (anthrax) and its spores; settings: cited from earlier work
strain IMB-1 [4] = assay: 14C-MeBr oxidation assay on washed cell suspensions; assay type: cell-based, strain IMB-1 (ATCC 202197); settings: cells grown on the substrate indicated
[5] = 0 cells
strain IMB-1 [6] = assay: Growth of strain IMB-1 on substrates in mineral salts medium (Balch tubes); settings: substrate as electron donor / carbon and energy source
[7] = 3 × 10^7 cells/cm^3, 0.76 mg MeBr added
[8] = 3 × 10^7 cells/cm^3, 1.36 mg MeBr added
[9] = 3 × 10^7 cells/cm^3, 5.30 mg MeBr added
[10] = 3 × 10^8 cells/cm^3, 0.76 mg MeBr added
[11] = 3 × 10^8 cells/cm^3, 1.36 mg MeBr added
[12] = 3 × 10^8 cells/cm^3, 5.30 mg MeBr added
[13] = 3 × 10^9 cells/cm^3, 0.76 mg MeBr added
[14] = 3 × 10^9 cells/cm^3, 1.36 mg MeBr added
[15] = 3 × 10^9 cells/cm^3, 5.30 mg MeBr added

Compound: CBr [MeBr, methyl bromide]
- time to removal of MeBr (strain IMB-1 [1]; 0.76 mg (1.2 mM in the liquid), bottles containing 1.5×10^8 cells): ≤ 190 h
- time to removal of MeBr (strain IMB-1 [1]; 0.76 mg, bottles containing 10-fold more cells): ≤ 35 h
- time to removal of MeBr (strain IMB-1 [1]; 0.76 mg, bottles containing 100-fold more cells (3×10^9 cells/cm^3)): ≤ 2 h
- time to oxidation of MeBr (strain IMB-1 [1]; 1.2 mM in the liquid, cells grown on MeBr (2.8×10^8 cells)): within one hour
- time to remove a similar amount of MeBr (strain IMB-1 [1]; 1.2 mM in the liquid, glucose-grown cells (3.6×10^8 cells)): greater than 5 hours
- time to removal of MeBr (strain IMB-1 [1]; 1.36 mg MeBr, 3×10^9 cells/cm^3): ≤ 7 h
- MeBr Oxidation Rate (strain IMB-1 [1]; [7]): 0.063 mg/day
- MeBr Oxidation Rate Constant (strain IMB-1 [1]; [7]): 0.083 per d
- MeBr Oxidation Rate per Cell (strain IMB-1 [1]; [7]): 4.1 ×10^10
- CO2 Production Rate (strain IMB-1 [1]; [7]): 0.031 mg/day
- MeBr Oxidation Rate (strain IMB-1 [1]; [8]): 0 mg/day
- MeBr Oxidation Rate Constant (strain IMB-1 [1]; [8]): 0 per d
- MeBr Oxidation Rate per Cell (strain IMB-1 [1]; [8]): 0 ×10^10
- CO2 Production Rate (strain IMB-1 [1]; [8]): 0.002 mg/day
- MeBr Oxidation Rate (strain IMB-1 [1]; [9]): 0 mg/day
- MeBr Oxidation Rate Constant (strain IMB-1 [1]; [9]): 0 per d
- MeBr Oxidation Rate per Cell (strain IMB-1 [1]; [9]): 0 ×10^10
- CO2 Production Rate (strain IMB-1 [1]; [9]): 0 mg/day
- MeBr Oxidation Rate (strain IMB-1 [1]; [10]): 0.555 mg/day
- MeBr Oxidation Rate Constant (strain IMB-1 [1]; [10]): 0.73 per d
- MeBr Oxidation Rate per Cell (strain IMB-1 [1]; [10]): 3.7 ×10^10
- CO2 Production Rate (strain IMB-1 [1]; [10]): 0.224 mg/day
- MeBr Oxidation Rate (strain IMB-1 [1]; [11]): 0.180 mg/day
- MeBr Oxidation Rate Constant (strain IMB-1 [1]; [11]): 0.13 per d
- MeBr Oxidation Rate per Cell (strain IMB-1 [1]; [11]): 1.2 ×10^10
- CO2 Production Rate (strain IMB-1 [1]; [11]): 0.189 mg/day
- MeBr Oxidation Rate (strain IMB-1 [1]; [12]): 0 mg/day
- MeBr Oxidation Rate Constant (strain IMB-1 [1]; [12]): 0 per d
- MeBr Oxidation Rate per Cell (strain IMB-1 [1]; [12]): 0 ×10^10
- CO2 Production Rate (strain IMB-1 [1]; [12]): 0 mg/day
- MeBr Oxidation Rate (strain IMB-1 [1]; [13]): 6.53 mg/day
- MeBr Oxidation Rate Constant (strain IMB-1 [1]; [13]): 8.6 per d
- MeBr Oxidation Rate per Cell (strain IMB-1 [1]; [13]): 4.4 ×10^10
- CO2 Production Rate (strain IMB-1 [1]; [13]): 5.025 mg/day
- MeBr Oxidation Rate (strain IMB-1 [1]; [14]): 3.52 mg/day
- MeBr Oxidation Rate Constant (strain IMB-1 [1]; [14]): 2.59 per d
- MeBr Oxidation Rate per Cell (strain IMB-1 [1]; [14]): 2.3 ×10^10
- CO2 Production Rate (strain IMB-1 [1]; [14]): 1.990 mg/day
- MeBr Oxidation Rate (strain IMB-1 [1]; [15]): 6.07 mg/day
- MeBr Oxidation Rate Constant (strain IMB-1 [1]; [15]): 1.14 per d
- MeBr Oxidation Rate per Cell (strain IMB-1 [1]; [15]): 4.0 ×10^10
- CO2 Production Rate (strain IMB-1 [1]; [15]): 2.696 mg/day
- MeBr removal from the headspace of flasks per cell (strain IMB-1 [1]; cultures grown on glucose): 8 ×10^−15 g MeBr/cell/hr
- MeBr removal from the headspace of flasks per cell (strain IMB-1 [1]; strain IMB-1 grown on MeBr): 55 ×10^−15 g MeBr/cell/hr
- amount of MeBr removed from the air supply (strain IMB-1 [2]): 80 g
- killing of B. anthracis and its spores ([3]; Kolb and Schneiter 1950): kill
- level at which methyl bromide functions as a microbicide and a pesticide ([3]; Schade and King 1977, tree nuts): about 25,000 ppm
- MeBr oxidized (strain IMB-1 [4]): 1.4 pmol/10^6 cells/h
- CO2 Production Rate ([5]; 0.76 mg MeBr added): 0 mg/day
- MeBr Oxidation Rate ([5]; 0.76 mg MeBr added): 0.029 mg/day
- CO2 Production Rate ([5]; 1.36 mg MeBr added): 0 mg/day
- MeBr Oxidation Rate ([5]; 1.36 mg MeBr added): 0.062 mg/day
- CO2 Production Rate ([5]; 5.30 mg MeBr added): 0 mg/day
- MeBr Oxidation Rate ([5]; 5.30 mg MeBr added): 0.208 mg/day
- growth of strain IMB-1 on the substrate (in words) (strain IMB-1 [6]): grow using MeBr as a sole source of carbon and energy
